Data from ChEMBL document CHEMBL4414548 (J Med Chem, 2019).

Experiments:
[1] = Metabolic stability in rat liver microsomes assessed as parent compound remaining after 10 mins; format: ADME, Microsome; conditions: read-out: Stability
[2] = Cmax in Balb/c mouse assessed as 6-((5-Fluoropyridin-2-yl)amino)-4-((2-(methylsulfonyl)phenyl)amino)nicotinamide level at 10 mg/kg, po after 3 hrs; format: ADME, organism-based; design: dose 10 mg/kg, route oral; conditions: in vivo
[3] = Cmax in Balb/c mouse assessed as 6-((5-Fluoropyridin-2-yl)amino)-4-((2-(methylsulfonyl)phenyl)amino)nicotinamide level at 3 mg/kg, iv after 1 hr; format: ADME, organism-based; design: dose 3 mg/kg, route intravenous; conditions: in vivo
[4] = Cmax in Balb/c mouse assessed as 6-((5-Fluoropyridin-2-yl)amino)-4-((2-(methylsulfonyl)phenyl)amino)nicotinamide level at 3 mg/kg, iv after 0.5 hrs; format: ADME, organism-based; design: dose 3 mg/kg, route intravenous; conditions: in vivo
[5] = Drug concentration in Balb/c mouse at 3 mg/kg, iv after 3 hrs; format: ADME, organism-based; conditions: in vivo, read-out: Drug uptake
JAK3/JAK1 = JAK3/JAK1 (Homo sapiens, UniProt P23458+P52333); experiment: Inhibition of JAK1/JAK3 (unknown origin) in IL-2 stimulated cells by cell based assay
Chain of JAK3/JAK1 (P52333 whole entry): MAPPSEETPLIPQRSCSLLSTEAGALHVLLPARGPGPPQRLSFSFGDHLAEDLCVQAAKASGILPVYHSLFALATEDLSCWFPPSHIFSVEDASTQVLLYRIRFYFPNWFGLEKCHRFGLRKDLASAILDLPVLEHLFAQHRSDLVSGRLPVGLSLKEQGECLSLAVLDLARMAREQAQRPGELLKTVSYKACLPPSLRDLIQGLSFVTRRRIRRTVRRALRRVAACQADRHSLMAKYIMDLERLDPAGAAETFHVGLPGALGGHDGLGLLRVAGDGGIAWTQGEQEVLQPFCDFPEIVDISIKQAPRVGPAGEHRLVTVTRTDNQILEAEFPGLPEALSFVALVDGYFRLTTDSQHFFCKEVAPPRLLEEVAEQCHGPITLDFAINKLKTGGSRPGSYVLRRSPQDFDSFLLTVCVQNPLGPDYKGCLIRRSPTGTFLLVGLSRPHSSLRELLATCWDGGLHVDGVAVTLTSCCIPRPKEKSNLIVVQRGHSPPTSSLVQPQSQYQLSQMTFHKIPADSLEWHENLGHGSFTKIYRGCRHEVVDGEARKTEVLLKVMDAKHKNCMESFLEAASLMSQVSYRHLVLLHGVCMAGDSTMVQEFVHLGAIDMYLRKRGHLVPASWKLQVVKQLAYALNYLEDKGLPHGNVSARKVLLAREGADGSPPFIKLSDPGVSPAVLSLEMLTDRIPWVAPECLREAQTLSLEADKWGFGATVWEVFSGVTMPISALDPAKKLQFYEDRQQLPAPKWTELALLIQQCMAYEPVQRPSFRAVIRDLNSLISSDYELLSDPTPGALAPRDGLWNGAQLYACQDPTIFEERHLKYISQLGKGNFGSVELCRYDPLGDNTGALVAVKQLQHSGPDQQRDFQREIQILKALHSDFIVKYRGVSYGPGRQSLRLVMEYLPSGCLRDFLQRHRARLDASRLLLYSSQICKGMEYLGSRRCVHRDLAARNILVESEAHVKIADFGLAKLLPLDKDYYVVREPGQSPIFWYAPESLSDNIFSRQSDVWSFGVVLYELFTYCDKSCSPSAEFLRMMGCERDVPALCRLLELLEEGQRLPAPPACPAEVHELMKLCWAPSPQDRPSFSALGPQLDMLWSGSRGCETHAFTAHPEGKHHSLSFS
Chain of JAK3/JAK1 (P23458 whole entry): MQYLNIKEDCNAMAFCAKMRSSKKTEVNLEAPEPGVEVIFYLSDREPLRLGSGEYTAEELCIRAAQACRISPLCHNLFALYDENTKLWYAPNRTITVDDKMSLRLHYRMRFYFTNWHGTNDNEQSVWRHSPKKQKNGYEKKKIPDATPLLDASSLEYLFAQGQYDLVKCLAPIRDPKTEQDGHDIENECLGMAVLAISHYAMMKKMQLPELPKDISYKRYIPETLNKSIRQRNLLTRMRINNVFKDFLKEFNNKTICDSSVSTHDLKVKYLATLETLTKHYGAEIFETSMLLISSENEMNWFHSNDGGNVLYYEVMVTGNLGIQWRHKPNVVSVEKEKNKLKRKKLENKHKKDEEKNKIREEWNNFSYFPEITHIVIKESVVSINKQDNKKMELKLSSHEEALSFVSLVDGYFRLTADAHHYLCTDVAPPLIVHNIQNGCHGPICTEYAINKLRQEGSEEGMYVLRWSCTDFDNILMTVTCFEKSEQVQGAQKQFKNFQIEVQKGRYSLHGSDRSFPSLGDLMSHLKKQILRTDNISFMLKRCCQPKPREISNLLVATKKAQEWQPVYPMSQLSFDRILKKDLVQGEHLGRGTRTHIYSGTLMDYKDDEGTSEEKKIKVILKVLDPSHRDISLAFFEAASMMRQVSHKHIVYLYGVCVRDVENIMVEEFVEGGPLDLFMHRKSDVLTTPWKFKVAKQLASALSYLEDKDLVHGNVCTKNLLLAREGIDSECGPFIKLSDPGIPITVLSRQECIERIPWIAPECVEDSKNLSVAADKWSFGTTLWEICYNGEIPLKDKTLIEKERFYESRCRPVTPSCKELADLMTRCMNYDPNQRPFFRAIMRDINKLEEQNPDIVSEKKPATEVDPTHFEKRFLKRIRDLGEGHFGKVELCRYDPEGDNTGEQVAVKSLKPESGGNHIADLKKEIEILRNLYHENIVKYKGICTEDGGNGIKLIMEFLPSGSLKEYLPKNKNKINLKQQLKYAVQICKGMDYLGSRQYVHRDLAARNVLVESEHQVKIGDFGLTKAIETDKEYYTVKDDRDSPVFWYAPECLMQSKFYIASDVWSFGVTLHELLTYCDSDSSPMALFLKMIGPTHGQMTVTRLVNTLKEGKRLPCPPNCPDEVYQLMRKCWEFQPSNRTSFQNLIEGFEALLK

[6] = Drug concentration in Balb/c mouse at 3 mg/kg, iv after 0.05 hrs; format: ADME, organism-based; conditions: in vivo, read-out: Drug uptake
[7] = Drug concentration in Balb/c mouse at 3 mg/kg, iv after 1 hr; format: ADME, organism-based; conditions: in vivo, read-out: Drug uptake
[8] = biological target: T1, Non-receptor tyrosine-protein kinase TYK2 (Homo sapiens, UniProt P29597); experiment: Inhibition of fluorescein-labeled kinase tracer binding to His-TVMV-fused TYK2 JH2 domain (575 to 869 residues) (unknown origin) measured after 90 mins by HTRF assay
T1 sequence (P29597 whole entry, the tested form may be a part): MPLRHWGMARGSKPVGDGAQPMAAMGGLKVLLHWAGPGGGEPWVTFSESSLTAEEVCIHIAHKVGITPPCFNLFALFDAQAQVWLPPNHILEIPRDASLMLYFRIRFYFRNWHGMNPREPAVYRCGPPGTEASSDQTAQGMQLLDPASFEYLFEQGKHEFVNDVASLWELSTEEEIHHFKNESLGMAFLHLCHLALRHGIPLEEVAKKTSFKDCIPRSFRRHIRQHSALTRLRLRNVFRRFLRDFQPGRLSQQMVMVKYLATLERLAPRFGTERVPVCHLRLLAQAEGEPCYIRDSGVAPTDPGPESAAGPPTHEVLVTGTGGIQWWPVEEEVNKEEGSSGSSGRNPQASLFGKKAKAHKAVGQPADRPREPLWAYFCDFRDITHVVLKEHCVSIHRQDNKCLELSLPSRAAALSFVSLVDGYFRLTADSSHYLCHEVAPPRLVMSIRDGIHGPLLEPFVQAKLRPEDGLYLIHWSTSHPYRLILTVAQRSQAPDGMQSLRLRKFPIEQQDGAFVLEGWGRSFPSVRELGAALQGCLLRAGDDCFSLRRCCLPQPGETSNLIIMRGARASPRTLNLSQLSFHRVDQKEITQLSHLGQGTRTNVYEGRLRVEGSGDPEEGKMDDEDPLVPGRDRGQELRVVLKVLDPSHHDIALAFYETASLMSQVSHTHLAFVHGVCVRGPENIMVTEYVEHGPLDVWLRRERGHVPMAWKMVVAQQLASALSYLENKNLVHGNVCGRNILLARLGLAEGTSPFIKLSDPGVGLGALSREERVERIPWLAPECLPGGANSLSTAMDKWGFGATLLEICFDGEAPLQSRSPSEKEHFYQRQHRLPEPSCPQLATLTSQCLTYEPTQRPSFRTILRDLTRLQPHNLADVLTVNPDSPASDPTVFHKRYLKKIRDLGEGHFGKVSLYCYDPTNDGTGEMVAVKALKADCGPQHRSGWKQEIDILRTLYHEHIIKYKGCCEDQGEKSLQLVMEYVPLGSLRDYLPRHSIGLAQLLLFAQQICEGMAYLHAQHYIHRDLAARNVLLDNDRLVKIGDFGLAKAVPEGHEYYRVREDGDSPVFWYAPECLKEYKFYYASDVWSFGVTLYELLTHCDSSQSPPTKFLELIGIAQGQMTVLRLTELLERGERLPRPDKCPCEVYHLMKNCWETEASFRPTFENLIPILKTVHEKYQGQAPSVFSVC

[9] = Half life in dog liver microsomes; format: ADME, Canis lupus familiaris, Microsome
JAK2/JAK1 = JAK2/JAK1 (Homo sapiens, UniProt O60674+P23458); experiment: Inhibition of JAK1/JAK2 (unknown origin) in GM-CSF stimulated cells by cell based assay
Chain of JAK2/JAK1 (P23458 whole entry): as the sequence (P23458 whole entry) above
Chain of JAK2/JAK1 (O60674 whole entry): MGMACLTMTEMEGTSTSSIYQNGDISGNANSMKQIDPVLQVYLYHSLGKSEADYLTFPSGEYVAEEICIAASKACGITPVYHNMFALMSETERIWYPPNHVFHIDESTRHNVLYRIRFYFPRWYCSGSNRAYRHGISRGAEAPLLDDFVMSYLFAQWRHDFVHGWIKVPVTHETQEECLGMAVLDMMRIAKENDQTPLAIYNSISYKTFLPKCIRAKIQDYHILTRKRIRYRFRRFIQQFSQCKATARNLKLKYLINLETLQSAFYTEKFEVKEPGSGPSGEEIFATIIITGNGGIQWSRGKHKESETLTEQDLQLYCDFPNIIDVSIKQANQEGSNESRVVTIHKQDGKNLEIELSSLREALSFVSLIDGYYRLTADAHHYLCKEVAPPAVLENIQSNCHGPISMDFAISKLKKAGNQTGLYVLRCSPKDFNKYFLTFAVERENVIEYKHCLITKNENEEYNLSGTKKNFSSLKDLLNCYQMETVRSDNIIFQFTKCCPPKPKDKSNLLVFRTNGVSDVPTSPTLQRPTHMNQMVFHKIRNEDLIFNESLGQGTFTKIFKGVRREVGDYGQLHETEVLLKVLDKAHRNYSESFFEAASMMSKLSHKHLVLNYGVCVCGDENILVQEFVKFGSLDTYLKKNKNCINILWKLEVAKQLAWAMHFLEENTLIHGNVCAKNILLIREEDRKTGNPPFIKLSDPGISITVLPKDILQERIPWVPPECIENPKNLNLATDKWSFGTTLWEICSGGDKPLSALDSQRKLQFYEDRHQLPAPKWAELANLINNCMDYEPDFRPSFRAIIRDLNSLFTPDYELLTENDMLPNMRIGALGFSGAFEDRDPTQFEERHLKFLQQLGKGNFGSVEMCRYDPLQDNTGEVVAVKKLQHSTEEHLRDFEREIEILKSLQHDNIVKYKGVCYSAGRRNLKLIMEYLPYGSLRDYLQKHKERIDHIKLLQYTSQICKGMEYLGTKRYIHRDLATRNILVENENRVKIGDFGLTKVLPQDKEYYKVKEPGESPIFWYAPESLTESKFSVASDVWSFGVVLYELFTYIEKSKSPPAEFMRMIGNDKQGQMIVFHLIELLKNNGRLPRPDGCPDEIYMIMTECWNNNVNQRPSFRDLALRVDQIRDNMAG

[10] = Cmax in Balb/c mouse assessed as 6-((5-Fluoropyridin-2-yl)amino)-4-((2-(methylsulfonyl)phenyl)amino)nicotinamide level at 3 mg/kg, iv after 0.05 hrs; format: ADME, organism-based; design: dose 3 mg/kg, route intravenous; conditions: in vivo
[11] = Cmax in Balb/c mouse assessed as 6-((5-Fluoropyridin-2-yl)amino)-4-((2-(methylsulfonyl)phenyl)amino)nicotinamide level at 10 mg/kg, po after 7 hrs; format: ADME, organism-based; design: dose 10 mg/kg, route oral; conditions: in vivo
[12] = AUClast in Balb/c mouse at 3 mg/kg, iv; format: ADME, organism-based; design: dose 3 mg/kg, route intravenous, time 0 - last; conditions: in vivo
[13] = Drug concentration in Balb/c mouse at 10 mg/kg, po after 0.5 hrs; format: ADME, organism-based; conditions: in vivo, read-out: Drug uptake
[14] = Cmax in mouse at 10 mg/kg, po after 7 hrs; format: ADME, organism-based; design: dose 10 mg/kg, route oral; conditions: in vivo
[15] = Metabolic stability in mouse liver microsomes assessed as parent compound remaining after 10 mins; format: ADME, Microsome; conditions: read-out: Stability
[16] = Drug concentration in Balb/c mouse at 3 mg/kg, iv after 5 hrs; format: ADME, organism-based; conditions: in vivo, read-out: Drug uptake
[17] = Drug concentration in Balb/c mouse at 10 mg/kg, po after 7 hrs; format: ADME, organism-based; conditions: in vivo, read-out: Drug uptake
[18] = Cmax in Balb/c mouse assessed as 6-((5-Fluoropyridin-2-yl)amino)-4-((2-(methylsulfonyl)phenyl)amino)nicotinamide level at 10 mg/kg, po after 1 hr; format: ADME, organism-based; design: dose 10 mg/kg, route oral; conditions: in vivo
[19] = Cmax in Balb/c mouse assessed as 6-((5-Fluoropyridin-2-yl)amino)-4-((2-(methylsulfonyl)phenyl)amino)nicotinamide level at 10 mg/kg, po after 0.05 hrs; format: ADME, organism-based; design: dose 10 mg/kg, route oral; conditions: in vivo
[20] = Drug concentration in Balb/c mouse at 10 mg/kg, po after 0.05 hrs; format: ADME, organism-based; conditions: in vivo, read-out: Drug uptake
[21] = biological target: Tyrosine-protein kinase JAK1 (Homo sapiens, UniProt P23458); experiment: Inhibition of JAK1 JH1 domain (unknown origin)
Chain of Tyrosine-protein kinase JAK1 (P23458 whole entry, the tested form may be a part): as the sequence (P23458 whole entry) above

[22] = biological target: T1, Non-receptor tyrosine-protein kinase TYK2; experiment: Inhibition of TYK2 JH2 domain in human whole blood assessed as inhibition of IFNalpha-induced STAT5 phosphorylation preincubated for 1 hr followed by IFNalpha stimulation and measured after 15 mins by fluorescence assay; format: tissue-based
[23] = Unbound drug level in rabbit at 1 to 10 mg/kg, iv; format: ADME, organism-based, Oryctolagus cuniculus; conditions: in vivo
[24] = Cmax in Balb/c mouse assessed as 6-((5-Fluoropyridin-2-yl)amino)-4-((2-(methylsulfonyl)phenyl)amino)nicotinamide level at 3 mg/kg, iv after 5 hrs; format: ADME, organism-based; design: dose 3 mg/kg, route intravenous; conditions: in vivo
[25] = Cmax in Balb/c mouse assessed as 6-((5-Fluoropyridin-2-yl)amino)-4-((2-(methylsulfonyl)phenyl)amino)nicotinamide level at 3 mg/kg, iv after 7 hrs; format: ADME, organism-based; design: dose 3 mg/kg, route intravenous; conditions: in vivo
[26] = Drug concentration in Balb/c mouse at 3 mg/kg, iv after 0.5 hrs; format: ADME, organism-based; conditions: in vivo, read-out: Drug uptake
[27] = Half life in Balb/c mouse at 3 mg/kg, iv; format: ADME, organism-based; conditions: in vivo
[28] = AUClast in Balb/c mouse at 10 mg/kg, po; format: ADME, organism-based; design: dose 10 mg/kg, time 0 - last, route oral; conditions: in vivo
[29] = Drug concentration in Balb/c mouse at 10 mg/kg, po after 5 hrs; format: ADME, organism-based; conditions: in vivo, read-out: Drug uptake
[30] = Drug concentration in Balb/c mouse at 10 mg/kg, po after 1 hr; format: ADME, organism-based; conditions: in vivo, read-out: Drug uptake
[31] = Efflux ratio of permeability in human Caco2; format: ADME, cell-based; conditions: Caco-2
[32] = biological target: Non-receptor tyrosine-protein kinase TYK2 (Mus musculus, UniProt Q9R117); experiment: Inhibition of TYK2 JH2 domain in mouse whole blood assessed as inhibition of IFNalpha-induced STAT1 phosphorylation preincubated for 1 hr followed by IFNalpha stimulation and measured after 15 mins by fluorescence assay; format: tissue-based
[33] = AUClast in mouse at 10 mg/kg, po after 7 hrs; format: ADME, organism-based; design: time < 7 hr, dose 10 mg/kg, route oral; conditions: in vivo
JAK2/TYK2 = JAK2/TYK2 (Homo sapiens, UniProt O60674+P29597); experiment: Inhibition of TYK2/JAK2 in IL23-stimulated human Kit225 cells by steady-glo luciferase assay
Chain of JAK2/TYK2 (O60674 whole entry): as the sequence (O60674 whole entry) above
Chain of JAK2/TYK2 (P29597 whole entry): as the sequence (P29597 whole entry, the tested form may be a part) above

[34] = Half life in human liver microsomes; format: ADME, Microsome
[35] = Permeability across apical to basolateral side in human Caco2 cells; format: ADME, cell-based; conditions: Caco-2, read-out: permeability
[36] = Half life in mouse liver microsomes; format: ADME, Microsome
[37] = Drug concentration in Balb/c mouse at 10 mg/kg, po after 3 hrs; format: ADME, organism-based; conditions: in vivo, read-out: Drug uptake
[38] = Volume of distribution at steady state in Balb/c mouse at 3 mg/kg, iv; format: ADME, organism-based; conditions: in vivo, read-out: Vdss
JAK1/TYK2 = JAK1/TYK2 (Homo sapiens, UniProt P23458+P29597); experiment: Inhibition of TYK2/JAK1 in IFNalpha-stimulated human Kit225 cells by steady-glo luciferase assay
Chain of JAK1/TYK2 (P23458 whole entry): as the sequence (P23458 whole entry) above
Chain of JAK1/TYK2 (P29597 whole entry): as the sequence (P29597 whole entry, the tested form may be a part) above

[39] = Half life in cynomolgus monkey liver microsomes; format: ADME, Macaca fascicularis, Microsome
[40] = biological target: Tyrosine-protein kinase JAK2 (Homo sapiens, UniProt O60674); experiment: Inhibition of JAK2 JH1 domain (unknown origin)
Chain of Tyrosine-protein kinase JAK2 (O60674 whole entry, the tested form may be a part): as the sequence (O60674 whole entry) above

[41] = Half life in rat liver microsomes; format: ADME, Microsome
[42] = Drug concentration in Balb/c mouse at 3 mg/kg, iv after 7 hrs; format: ADME, organism-based; conditions: in vivo, read-out: Drug uptake
[43] = Metabolic stability in human liver microsomes assessed as parent compound remaining after 10 mins; format: ADME, Microsome; conditions: read-out: Stability
[44] = Cmax in anesthetized rabbit at 1 to 10 mg/kg, iv; format: ADME, organism-based, Oryctolagus cuniculus; conditions: in vivo
[45] = biological target: T1, Non-receptor tyrosine-protein kinase TYK2; experiment: Inhibition of TYK2 JH1 domain (unknown origin)
[46] = Clearance in Balb/c mouse at 3 mg/kg, iv; format: ADME, organism-based; conditions: in vivo
[47] = Cmax in Balb/c mouse assessed as 6-((5-Fluoropyridin-2-yl)amino)-4-((2-(methylsulfonyl)phenyl)amino)nicotinamide level at 10 mg/kg, po after 5 hrs; format: ADME, organism-based; design: dose 10 mg/kg, route oral; conditions: in vivo
[48] = Cmax in Balb/c mouse assessed as 6-((5-Fluoropyridin-2-yl)amino)-4-((2-(methylsulfonyl)phenyl)amino)nicotinamide level at 3 mg/kg, iv after 3 hrs; format: ADME, organism-based; design: dose 3 mg/kg, route intravenous; conditions: in vivo
[49] = Cmax in Balb/c mouse assessed as 6-((5-Fluoropyridin-2-yl)amino)-4-((2-(methylsulfonyl)phenyl)amino)nicotinamide level at 10 mg/kg, po after 0.5 hrs; format: ADME, organism-based; design: dose 10 mg/kg, route oral; conditions: in vivo

remaining at 10 min [1]: 91%
Cmax [2]: 4.9 nM
Cmax [3]: 4.9 nM
Cmax [4]: 4.9 nM
concentration at 3 h [5]: 470 nM
IC50 (JAK3/JAK1): > 12.5 µM
concentration at 0.05 h [6]: 2800 nM
concentration at 1 h [7]: 1500 nM
IC50 [8]: 0.49 nM
half-life [9]: 16 min
IC50 (JAK2/JAK1): > 12.5 µM
Cmax [10]: 4.9 nM
Cmax [11]: 4.9 nM
AUC(0-t) [12]: 5 µM·h
concentration at 0.5 h [13]: 1400 nM
Cmax [14]: 1440 nM
remaining at 10 min [15]: 81%
concentration at 5 h [16]: 270 nM
concentration at 7 h [17]: 260 nM
Cmax [18]: 4.9 nM
Cmax [19]: 4.9 nM
concentration at 0.05 h [20]: 750 nM
IC50 [21]: > 2000 nM
IC50 [22]: 160 nM
fraction unbound [23]: 0.13
Cmax [24]: 4.9 nM
Cmax [25]: 4.9 nM
concentration at 0.5 h [26]: 2400 nM
half-life [27]: 72 min
AUC(0-t) [28]: 7.8 µM·h
concentration at 5 h [29]: 1300 nM
concentration at 1 h [30]: 1400 nM
efflux ratio [31]: 9.3
IC50 [32]: 600 nM
AUC(0-t) at 7 h [33]: 7.83 µM·h
IC50 (JAK2/TYK2): 110 nM
half-life [34]: 69 min
Papp A→B [35]: 5.8 ×10⁻⁶ cm/s
half-life [36]: 35 min
concentration at 3 h [37]: 1300 nM
Vd [38]: 2.7 L/kg
IC50 (JAK1/TYK2): 53 nM
half-life [39]: 6 min
IC50 [40]: > 50 µM
half-life [41]: 44 min
concentration at 7 h [42]: 47 nM
remaining at 10 min [43]: 85%
Cmax [44]: 20.2 µM
IC50 [45]: > 50 µM
clearance [46]: 25 mL/min/kg
Cmax [47]: 4.9 nM
Cmax [48]: 4.9 nM
Cmax [49]: 4.9 nM
Structure (SMILES): [2H]C([2H])([2H])NC(=O)c1cnc(Nc2ccc(F)cn2)cc1Nc1ccccc1S(C)(=O)=O
